Results published in US12479847B2 (DANA-FARBER CANCER INSTITUTE, INC., priority 2019, dated 2025).

Experiments:
Assay in all cases: KINOMEscan (ScanMAX) kinase profiling
Assay type in all cases: binding
[1] = target: T1, panel of 468 kinases (Homo sapiens, UniProt O00329); settings: PIK3CD; 1 μM; read-out: % control
T1 construct: purchased KINOMEscan (ScanMAX) service
T1 sequence (O00329 1-1044): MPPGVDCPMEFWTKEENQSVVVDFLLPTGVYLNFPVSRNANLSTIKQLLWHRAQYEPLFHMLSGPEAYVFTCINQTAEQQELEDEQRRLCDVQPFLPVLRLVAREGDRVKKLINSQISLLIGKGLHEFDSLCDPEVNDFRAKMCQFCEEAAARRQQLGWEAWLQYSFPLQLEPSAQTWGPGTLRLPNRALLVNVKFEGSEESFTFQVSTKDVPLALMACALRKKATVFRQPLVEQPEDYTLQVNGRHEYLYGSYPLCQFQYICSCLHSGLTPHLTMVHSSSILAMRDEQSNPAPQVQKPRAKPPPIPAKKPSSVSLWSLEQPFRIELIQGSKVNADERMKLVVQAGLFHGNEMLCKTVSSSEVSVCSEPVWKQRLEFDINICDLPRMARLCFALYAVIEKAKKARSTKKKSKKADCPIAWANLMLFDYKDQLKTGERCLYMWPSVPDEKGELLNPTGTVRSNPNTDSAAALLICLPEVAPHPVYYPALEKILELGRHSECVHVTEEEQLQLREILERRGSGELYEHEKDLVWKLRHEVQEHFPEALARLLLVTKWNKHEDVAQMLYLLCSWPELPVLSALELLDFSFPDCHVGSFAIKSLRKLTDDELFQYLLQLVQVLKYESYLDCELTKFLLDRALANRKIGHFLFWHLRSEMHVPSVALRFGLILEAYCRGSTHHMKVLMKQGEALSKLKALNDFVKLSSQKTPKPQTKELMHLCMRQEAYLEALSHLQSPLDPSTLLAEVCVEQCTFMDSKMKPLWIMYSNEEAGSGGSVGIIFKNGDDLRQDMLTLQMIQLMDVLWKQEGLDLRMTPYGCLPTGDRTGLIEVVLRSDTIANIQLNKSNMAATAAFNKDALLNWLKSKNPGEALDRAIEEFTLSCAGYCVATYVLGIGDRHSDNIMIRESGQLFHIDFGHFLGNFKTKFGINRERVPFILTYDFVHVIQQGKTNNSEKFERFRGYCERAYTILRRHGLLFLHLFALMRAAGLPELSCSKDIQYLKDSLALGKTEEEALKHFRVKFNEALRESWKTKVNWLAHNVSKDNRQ

[2] = target: T2, panel of 468 kinases (Homo sapiens, UniProt Q9Y2U5); settings: MAP3K2; 1 μM; read-out: % control
T2 construct: purchased KINOMEscan (ScanMAX) service
T2 sequence (Q9Y2U5 1-619): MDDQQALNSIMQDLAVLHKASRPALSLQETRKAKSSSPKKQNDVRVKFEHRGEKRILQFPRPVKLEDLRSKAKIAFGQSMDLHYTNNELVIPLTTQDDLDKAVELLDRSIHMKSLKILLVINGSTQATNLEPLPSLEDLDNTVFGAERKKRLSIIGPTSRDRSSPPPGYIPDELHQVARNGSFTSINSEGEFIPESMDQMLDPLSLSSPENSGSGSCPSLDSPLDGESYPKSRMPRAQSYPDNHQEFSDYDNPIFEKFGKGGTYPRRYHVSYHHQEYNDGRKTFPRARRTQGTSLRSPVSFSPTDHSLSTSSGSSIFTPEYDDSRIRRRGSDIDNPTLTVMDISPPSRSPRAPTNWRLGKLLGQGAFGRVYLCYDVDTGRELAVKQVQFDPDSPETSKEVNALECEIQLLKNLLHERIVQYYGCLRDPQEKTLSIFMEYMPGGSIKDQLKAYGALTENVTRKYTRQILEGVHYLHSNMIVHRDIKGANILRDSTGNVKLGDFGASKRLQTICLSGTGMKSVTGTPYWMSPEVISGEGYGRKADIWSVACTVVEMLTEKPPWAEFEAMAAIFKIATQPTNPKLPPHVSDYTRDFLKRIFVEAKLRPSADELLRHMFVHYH

[3] = target: T3, panel of 468 kinases (Homo sapiens, UniProt O15530); settings: PDPK1; 1 μM; read-out: % control
T3 construct: purchased KINOMEscan (ScanMAX) service
T3 sequence (O15530 1-556): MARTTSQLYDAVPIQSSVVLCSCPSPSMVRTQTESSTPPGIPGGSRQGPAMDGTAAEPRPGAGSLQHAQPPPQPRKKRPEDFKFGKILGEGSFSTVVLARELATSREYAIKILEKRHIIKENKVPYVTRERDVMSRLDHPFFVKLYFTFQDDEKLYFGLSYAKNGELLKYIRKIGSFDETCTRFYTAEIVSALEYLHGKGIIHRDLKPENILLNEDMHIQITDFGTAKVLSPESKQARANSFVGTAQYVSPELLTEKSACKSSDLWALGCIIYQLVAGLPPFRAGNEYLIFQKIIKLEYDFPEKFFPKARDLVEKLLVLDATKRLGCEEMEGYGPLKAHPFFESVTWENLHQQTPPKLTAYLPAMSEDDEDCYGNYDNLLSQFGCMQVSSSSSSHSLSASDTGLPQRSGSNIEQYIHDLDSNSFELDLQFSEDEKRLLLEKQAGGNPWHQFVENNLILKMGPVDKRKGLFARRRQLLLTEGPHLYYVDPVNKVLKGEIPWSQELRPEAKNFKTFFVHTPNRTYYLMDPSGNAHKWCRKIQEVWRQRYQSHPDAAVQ

[4] = target: T4, panel of 468 kinases (Homo sapiens, UniProt O14965); settings: AURKA; 1 μM; read-out: % control
T4 construct: purchased KINOMEscan (ScanMAX) service
T4 sequence (O14965 1-403): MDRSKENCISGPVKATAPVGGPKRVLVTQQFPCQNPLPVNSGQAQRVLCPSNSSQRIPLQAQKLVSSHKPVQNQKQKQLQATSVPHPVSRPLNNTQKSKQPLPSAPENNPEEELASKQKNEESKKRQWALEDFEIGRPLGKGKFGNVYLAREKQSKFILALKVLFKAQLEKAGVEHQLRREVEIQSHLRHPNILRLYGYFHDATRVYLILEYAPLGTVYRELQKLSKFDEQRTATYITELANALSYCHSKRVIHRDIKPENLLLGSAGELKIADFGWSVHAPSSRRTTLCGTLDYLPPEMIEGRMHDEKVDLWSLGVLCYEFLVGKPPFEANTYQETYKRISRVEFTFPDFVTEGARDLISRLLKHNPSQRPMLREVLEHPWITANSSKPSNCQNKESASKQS

SMILES | remaining binding at 1 µM [1] | remaining binding at 1 µM [2] | remaining binding at 1 µM [3] | remaining binding at 1 µM [4]
CNc1nc(Nc2ccc(S(=O)(=O)N3CCC(N4CCOCC4)CC3)cc2OC)nc2[nH]cc(Cl)c12 [Compound 12, 5-chloro-N2-(2-methoxy-4-((4-morpholinopiperidin-1-yl)sulfonyl)phenyl)-N4-methyl-7H-pyrrolo[2,3-d]pyrimidine-2,4-diamine] | 96% | 80% | 95% | 93%
CNc1nc(Nc2ccc(C(=O)N3CCC(N4CCOCC4)CC3)c3c2OCO3)nc2[nH]cc(Cl)c12 [Compound 75, (7-((5-chloro-4-(methylamino)-7H-pyrrolo[2,3-d]pyrimidin-2-yl)amino)benzo[d][1,3]dioxol-4-yl)(4-morpholinopiperidin-1-yl)methanone] | 96% | 15% | 98% | 45%
CNc1nc(Nc2ccc(P3(=O)CCN(C4CCOCC4)CC3)cc2OC)nc2[nH]cc(Cl)c12 [Compound 77, 4-(4-((5-chloro-4-(methylamino)-7H-pyrrolo[2,3-d]pyrimidin-2-yl)amino)-3-methoxyphenyl)-1-(tetrahydro-2H-pyran-4-yl)-1,4-azaphosphinane 4-oxide] | 92% | 86% | 100% | 85%
